Activity data for 18 compounds are collected here from the supplement of paper PMC8976852.

Holding throughout (assay): activity (1 - area under the dose-response curve within the screened range) (fraction); higher = more sensitive
Conditions in all cases: treatment time: 72 h

The subject of test [1] is HCM-SANG-0270-C20 (colorectal cancer organoid). Here is the method: (§1)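 Patient-derived cancer organoids (colorectal and oesophageal, HCM-SANG models) were grown for up to 6 months in 5% or 80% ECM (BME-2), then seeded in 384-well plates on an ECM layer and treated with 72 compounds for 3 days. Each compound used a 7-point half-log dilution series spanning a 1000-fold range, in technical triplicate and biological duplicate. Dose-response curves were fitted with a non-linear mixed effects model; fits with RMSE > 0.3 were removed, and activity = 1 - AUC within the screened dose range (0 = no activity, 1 = maximum).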

In test [2] the test system is HCM-SANG-0532-C20 (colorectal cancer organoid). Here is the method: as §1
For test [3], the system named is HCM-SANG-0266-C20 (colorectal cancer organoid). Here is the method:
as §1

For test [4], the system named is HCM-SANG-0291-C15 (oesophageal cancer organoid). Here is the method:
as §1

[5] abbreviates: ECM percentage in culture prior to screening 5 %.
The mark [6] stands for this setting: ECM percentage in culture prior to screening 80 %.

± gives the standard deviation of the averaged measurements.

In the case of `Cc1cc(-c2ncc(CC(=O)Nc3ccc(-c4cnccn4)cn3)cc2C)ccn1` [LGK974], the activity in test [1] (setting [5]) came to 0.0409 ± 0.013; in test [1] (setting [6]) it was 0.0485 ± 0.035; in test [2] (setting [5]) it was 0.0269 ± 0.005; in test [2] (setting [6]), 0.0397 ± 0.009; in test [3] (setting [5]), 0.0334 ± 0.014; in test [3] (setting [6]) it was 0.0329 ± 0.017. For the same compound, the figures for the activity in test [4] (setting [5]) and in test [4] (setting [6]) were 0.0263 ± 0.0099 and 0.0251 ± 0.0087, respectively.
For `C#Cc1cccc(Nc2ncnc3cc(OCCOC)c(OCCOC)cc23)c1` [Erlotinib], the activity in test [1] (setting [5]) came to 0.148 ± 0.1; in test [1] (setting [6]), 0.121 ± 0.086; in test [2] (setting [5]), 0.207 ± 0.091; in test [2] (setting [6]), 0.209 ± 0.06; in test [3] (setting [5]), 0.171 ± 0.037; in test [3] (setting [6]), 0.129 ± 0.053. For the same compound, the activity is 0.204 ± 0.026 in test [4] (setting [5]) and 0.198 ± 0.033 in test [4] (setting [6]).
On to `Cc1cccc(-c2[nH]c(C(C)(C)C)nc2-c2ccc3c(c2)OCO3)n1`, for which the activity in test [1] (setting [5]) was determined as 0.0741 ± 0.023; in test [1] (setting [6]) it was 0.0613 ± 0.046; in test [2] (setting [5]), 0.0437 ± 0.015; in test [2] (setting [6]), 0.0531 ± 0.017; in test [3] (setting [5]), 0.0398 ± 0.022; in test [3] (setting [6]), 0.0534 ± 0.016. Moreover, the figures for the activity in test [4] (setting [5]) and in test [4] (setting [6]) were 0.0256 ± 0.0074 and 0.0336 ± 0.018, respectively.
On to `O=C(O)C(=O)O.[NH-][C@@H]1CCCC[C@H]1[NH-].[Pt+2]` [Oxaliplatin], for which the activity came to 0.0594 ± 0.018 in test [1] (setting [5]); 0.0493 ± 0.038 in test [1] (setting [6]); 0.0448 ± 0.016 in test [2] (setting [5]); 0.0692 ± 0.031 in test [2] (setting [6]); 0.0673 ± 0.036 in test [3] (setting [5]); 0.0486 ± 0.022 in test [3] (setting [6]). In addition, the activity in test [4] (setting [5]) was determined as 0.0391 ± 0.022; in test [4] (setting [6]), 0.0459 ± 0.025.
With `CN(C)C/C=C/C(=O)Nc1cc2c(Nc3ccc(F)c(Cl)c3)ncnc2cc1O[C@H]1CCOC1` [Afatinib], the activity in test [1] (setting [5]) was found to be 0.311 ± 0.11; in test [1] (setting [6]), 0.153 ± 0.13; in test [2] (setting [5]), 0.171 ± 0.1; in test [2] (setting [6]), 0.243 ± 0.07; in test [3] (setting [5]), 0.308 ± 0.13; in test [3] (setting [6]) it was 0.217 ± 0.11. Moreover, the activity in test [4] (setting [5]) was determined as 0.414 ± 0.064; in test [4] (setting [6]), 0.316 ± 0.06.
For `CNC(=O)c1cc(Oc2ccc(NC(=O)Nc3ccc(Cl)c(C(F)(F)F)c3)cc2)ccn1` [Sorafenib], the activity in test [1] (setting [5]) is 0.0957 ± 0.011; in test [1] (setting [6]), 0.102 ± 0.068; in test [2] (setting [5]), 0.0823 ± 0.0072; in test [2] (setting [6]), 0.123 ± 0.033; in test [3] (setting [5]), 0.122 ± 0.014; in test [3] (setting [6]) it was 0.106 ± 0.013. The values for the activity in test [4] (setting [5]) and in test [4] (setting [6]) were 0.0375 ± 0.016 and 0.0266 ± 0.009, respectively.
`Nc1ccccc1NC(=O)c1ccc(CNC(=O)OCc2cccnc2)cc1` [Entinostat]: the activity turned out to be 0.0723 ± 0.025 in test [1] (setting [5]); 0.0687 ± 0.041 in test [1] (setting [6]); 0.0795 ± 0.022 in test [2] (setting [5]); 0.102 ± 0.025 in test [2] (setting [6]); 0.0903 ± 0.02 in test [3] (setting [5]); 0.0905 ± 0.023 in test [3] (setting [6]). Moreover, the figures for the activity in test [4] (setting [5]) and in test [4] (setting [6]) were 0.124 ± 0.045 and 0.119 ± 0.047, respectively.
For the compound `N#CC[C@H](C1CCCC1)n1cc(-c2ncnc3[nH]ccc23)cn1` [Ruxolitinib], the activity amounted to 0.0225 ± 0.0051 in test [1] (setting [5]); 0.0229 ± 0.007 in test [1] (setting [6]); 0.0295 ± 0.011 in test [2] (setting [5]); 0.0236 ± 0.0026 in test [2] (setting [6]); 0.0203 ± 0.00098 in test [3] (setting [5]); 0.03 ± 0.01 in test [3] (setting [6]). In addition, the activity in test [4] (setting [5]) was determined as 0.0206 ± 0.0044; in test [4] (setting [6]), 0.0196 ± 0.0023.
In the case of `O=C(Nc1ccc2[nH]nc(-c3ccncc3)c2c1)[C@@H]1CCN(CC(=O)N2CCN(c3ccc(-c4ncccn4)cc3)CC2)C1`, the activity was 0.159 ± 0.078 in test [1] (setting [5]); 0.0818 ± 0.065 in test [1] (setting [6]); 0.201 ± 0.13 in test [2] (setting [5]); 0.272 ± 0.056 in test [2] (setting [6]); 0.388 ± 0.086 in test [3] (setting [5]); 0.155 ± 0.12 in test [3] (setting [6]). The activity in test [4] (setting [5]) was 0.236 ± 0.027; in test [4] (setting [6]) it was 0.224 ± 0.055.
On to `CS(=O)(=O)N1CCN(Cc2cc3nc(-c4cccc5[nH]ncc45)nc(N4CCOCC4)c3s2)CC1` [Pictilisib], for which the activity in test [1] (setting [5]) came out at 0.0973 ± 0.037; in test [1] (setting [6]), 0.0554 ± 0.033; in test [2] (setting [5]) it was 0.12 ± 0.07; in test [2] (setting [6]) it was 0.155 ± 0.039; in test [3] (setting [5]), 0.198 ± 0.059; in test [3] (setting [6]) it was 0.152 ± 0.068. The values for the activity in test [4] (setting [5]) and in test [4] (setting [6]) were 0.0595 ± 0.032 and 0.0514 ± 0.019, respectively.
On to `Cn1ncc(Cl)c1-c1cc(C(=O)N[C@H](CN)Cc2ccc(F)c(F)c2)oc1Cl` [Uprosertib], for which the activity in test [1] (setting [5]) was 0.0769 ± 0.057; in test [1] (setting [6]), 0.0584 ± 0.038; in test [2] (setting [5]) it was 0.177 ± 0.14; in test [2] (setting [6]) it was 0.159 ± 0.027; in test [3] (setting [5]), 0.218 ± 0.089; in test [3] (setting [6]), 0.183 ± 0.08. Further, the activity worked out at 0.0195 ± 0.0032 in test [4] (setting [5]) and 0.0257 ± 0.018 in test [4] (setting [6]).
Consider `Cn1c(=O)n(-c2ccc(C(C)(C)C#N)cc2)c2c3cc(-c4cnc5ccccc5c4)ccc3ncc21` [Dactolisib], for which the activity worked out at 0.123 ± 0.039 in test [1] (setting [5]); 0.0768 ± 0.059 in test [1] (setting [6]); 0.193 ± 0.058 in test [2] (setting [5]); 0.257 ± 0.025 in test [2] (setting [6]); 0.254 ± 0.077 in test [3] (setting [5]); 0.239 ± 0.092 in test [3] (setting [6]). Also, the activity in test [4] (setting [5]) amounted to 0.101 ± 0.035; in test [4] (setting [6]) it was 0.0783 ± 0.027.
On to `NC1(c2ccc(-c3nc4ccn5c(=O)[nH]nc5c4cc3-c3ccccc3)cc2)CCC1` [MK-2206], for which the activity in test [1] (setting [5]) is 0.076 ± 0.014; in test [1] (setting [6]), 0.0487 ± 0.04; in test [2] (setting [5]), 0.158 ± 0.11; in test [2] (setting [6]) it was 0.168 ± 0.034; in test [3] (setting [5]), 0.223 ± 0.074; in test [3] (setting [6]), 0.152 ± 0.095. Moreover, the activity in test [4] (setting [5]) came to 0.086 ± 0.048; in test [4] (setting [6]), 0.0594 ± 0.025.
Take `O=C1NC(=NCc2cccs2)S/C1=C\c1ccc2ncccc2c1` [RO-3306]: the activity in test [1] (setting [5]) was 0.0909 ± 0.041; in test [1] (setting [6]), 0.0974 ± 0.033; in test [2] (setting [5]) it was 0.117 ± 0.033; in test [2] (setting [6]) it was 0.108 ± 0.016; in test [3] (setting [5]), 0.123 ± 0.017; in test [3] (setting [6]), 0.152 ± 0.035. The activity in test [4] (setting [5]) amounted to 0.0636 ± 0.017; in test [4] (setting [6]) it was 0.0709 ± 0.026.
Consider `COc1cc2nccc(Oc3ccc(NC(=O)Nc4cc(C)on4)c(Cl)c3)c2cc1OC` [Tivozanib], for which the activity stood at 0.0217 ± 0.0076 in test [1] (setting [5]); 0.0262 ± 0.01 in test [1] (setting [6]); 0.0321 ± 0.016 in test [2] (setting [5]); 0.0237 ± 0.0055 in test [2] (setting [6]); 0.0203 ± 0.0013 in test [3] (setting [5]); 0.0214 ± 0.0013 in test [3] (setting [6]). Besides, the figures for the activity in test [4] (setting [5]) and in test [4] (setting [6]) were 0.0202 ± 0.0045 and 0.0228 ± 0.0062, respectively.
Consider `CCNC(=O)C[C@@H]1N=C(c2ccc(Cl)cc2)c2cc(OC)ccc2-n2c(C)nnc21` [I-BET-762], for which the activity is 0.0441 ± 0.019 in test [1] (setting [5]); 0.0339 ± 0.019 in test [1] (setting [6]); 0.0448 ± 0.021 in test [2] (setting [5]); 0.0841 ± 0.035 in test [2] (setting [6]); 0.121 ± 0.041 in test [3] (setting [5]); 0.0782 ± 0.04 in test [3] (setting [6]). Moreover, the activity in test [4] (setting [5]) was determined as 0.0724 ± 0.037; in test [4] (setting [6]), 0.068 ± 0.015.
`C=CCn1c(=O)c2cnc(Nc3ccc(N4CCN(C)CC4)cc3)nc2n1-c1cccc(C(C)(C)O)n1` [MK-1775]: the activity worked out at 0.255 ± 0.042 in test [1] (setting [5]); 0.205 ± 0.11 in test [1] (setting [6]); 0.156 ± 0.019 in test [2] (setting [5]); 0.19 ± 0.027 in test [2] (setting [6]); 0.407 ± 0.048 in test [3] (setting [5]); 0.348 ± 0.044 in test [3] (setting [6]). For the same compound, the activity in test [4] (setting [5]) amounted to 0.257 ± 0.036; in test [4] (setting [6]), 0.24 ± 0.051.
As for `O=c1[nH]cc(F)c(=O)[nH]1` [5-Fluorouracil], the activity in test [1] (setting [5]) was 0.123 ± 0.031; in test [1] (setting [6]) it was 0.103 ± 0.075; in test [2] (setting [5]), 0.0766 ± 0.035; in test [2] (setting [6]) it was 0.121 ± 0.044; in test [3] (setting [5]) it was 0.137 ± 0.068; in test [3] (setting [6]), 0.12 ± 0.061. The activity is 0.0848 ± 0.043 in test [4] (setting [5]) and 0.063 ± 0.035 in test [4] (setting [6]).
